Test results taken from US10239868B2, “5-hydroxytryptamine receptor 7 activity modulators and their method of use” (TEMPLE UNIVERSITY OF THE COMMONWEALTH SYSTEM OF HIGHER …, priority 2013, dated 2019).

target: Serotonin 5HT7 receptors (Homo sapiens (Human), UniProt P34969); assay: Radiolabel Binding Studies for Serotonin 5HT7 receptors; conditions: read-out: 5-HT7 % inhib @ 10 uM;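 note: displacement of a tritiated radioligand from membranes of stably transfected cells carrying recombinant 5-HT7 receptor, with filter-bound radioactivity measured by scintillation counting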
Sequence (P34969 whole entry): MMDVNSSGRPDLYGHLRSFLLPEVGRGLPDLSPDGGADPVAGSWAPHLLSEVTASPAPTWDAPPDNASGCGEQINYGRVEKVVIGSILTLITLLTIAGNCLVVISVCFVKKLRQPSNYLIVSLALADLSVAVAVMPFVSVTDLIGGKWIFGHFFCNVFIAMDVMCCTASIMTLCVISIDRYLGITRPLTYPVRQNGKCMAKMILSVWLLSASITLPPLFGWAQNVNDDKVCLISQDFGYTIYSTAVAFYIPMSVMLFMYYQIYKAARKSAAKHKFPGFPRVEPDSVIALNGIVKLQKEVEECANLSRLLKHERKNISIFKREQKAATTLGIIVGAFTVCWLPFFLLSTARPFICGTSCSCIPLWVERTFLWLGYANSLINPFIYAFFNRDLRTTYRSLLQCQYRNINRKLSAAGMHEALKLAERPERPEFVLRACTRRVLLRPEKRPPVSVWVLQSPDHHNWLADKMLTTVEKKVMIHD
Description: Radiolabel Binding Studies for Serotonin 5HT7 Receptors, Method 1:
Eleven dilutions (5× assay concentration) of the compound of the disclosure and chlorpromazine are prepared in the Assay Buffer by serial dilution to yield final corresponding assay concentrations ranging from 10 pM to 10 μM.
A stock concentration of 5 nM [^3H]LSD (lysergic acid diethyl amide) is prepared in 50 mM Tris-HCl, 10 mM MgCl2, 1 mM EDTA, pH 7.4 (Assay Buffer). Aliquots (50 μl) of radioligand are dispensed into the wells of a 96-well plate containing 100 μl of Assay Buffer. Duplicate 50-μl aliquots of the compound of the disclosure test and chlorpromazine positive control reference compound serial dilutions are added.
Membrane fractions of cells expressing recombinant 5HT7 receptors (50 μL) are dispensed into each well. The membranes are prepared from stably transfected cell lines expressing 5HT7 receptors cultured on 10-cm plates by harvesting PBS-rinsed monolayers, resuspending and lysing in chilled, hypotonic 50 mM Tris-HCl, pH 7.4, centrifuging at 20,000×g, decanting the supernatant and storing at −80° C.; the membrane preparations are resuspended in 3 ml of chilled Assay Buffer and homogenized by several passages through a 26 gauge needle before using in the assay.
The 250-μl reactions are incubated at room temperature for 1.5 hours, then harvested by rapid filtration onto 0.3% polyethyleneimine-treated, 96-well filter mats using a 96-well Filtermate harvester. Four rapid 500-μl washes are performed with chilled Assay Buffer to reduce non-specific binding. The filter mats are dried, then scintillant is added to the filters and the radioactivity retained on the filters is counted in a Microbeta scintillation counter.
Raw data (dpm) representing total radioligand binding (i.e., specific+non-specific binding) are plotted as a function of the logarithm of the molar concentration of the competitor (i.e., test or reference compound).

| Structure (SMILES) | inhibition at 10 µM |
| --- | --- |
| CCC1(CC)CC(CCN2CCN(c3cccc(OC)c3)CC2)OC1=O (stereo not shown) [Entry 7] | 94.8% |
| CCC1(CC)CC(CCN2CCN(c3cccc(O)c3)CC2)OC1=O (stereo not shown) [Entry 8] | 93.6% |
| CCC1(CC)CC(CCN2CCN(c3ccc(N)cc3)CC2)OC1=O (stereo not shown) [Entry 12] | 80.9% |
| CCC1(CC)CC(CCN2CCN(c3ccccc3C)CC2)OC1=O (stereo not shown) [Entry 16] | 58.2% |
| CCC1(CC)CC(CCN2CCN(c3ccc(C)cc3C)CC2)OC1=O (stereo not shown) [Entry 17] | 56.2% |
| CCC1(CC)CC(CCN2CCc3ccccc3C2)OC1=O (stereo not shown) [Entry 18] | 82% |
| COc1ccc(N2CCN(CCC3CC4(CCCCC4)C(=O)O3)CC2)cc1 (stereo not shown) [Entry 20] | 78.1% |
| O=C1OC(CCN2CCN(c3cccc(O)c3)CC2)CC12CCCCC2 (stereo not shown) [Entry 21] | 86.8% |
| COc1ccccc1N1CCN(CCC2CC3(CCCCC3)C(=O)O2)CC1 (stereo not shown) [Entry 24] | 90.7% |
| O=C1OC(CCN2CCN(c3ccccc3O)CC2)CC12CCCCC2 (stereo not shown) [Entry 25] | 93.3% |
| O=C1OC(CCN2CCN(c3ccccn3)CC2)CC12CCCCC2 (stereo not shown) [Entry 26] | 97.4% |
| O=C1OC(CCN2CCN(c3ccncc3)CC2)CC12CCCCC2 (stereo not shown) [Entry 30] | 46.5% |
| N#Cc1ccc(N2CCN(CCC3CC4(CCCCC4)C(=O)O3)CC2)cc1 (stereo not shown) [Entry 33] | 83.4% |
| N#Cc1ccc(N2CCN(CCC3CC4(CCCCC4)C(=O)O3)CC2)nc1 (stereo not shown) [Entry 34] | 64.2% |
| O=C1OC(CCN2CCN(c3ccc(Cl)cn3)CC2)CC12CCCCC2 (stereo not shown) [Entry 36] | 96.7% |
| CC(C)c1ccccc1N1CCN(CCC2CC3(CCCC3)C(=O)O2)CC1 (stereo not shown) [Entry 39] | 96.1% |
| CC(C)c1cccc(C(C)C)c1N1CCN(CCC2CC3(CCCC3)C(=O)O2)CC1 (stereo not shown) [Entry 41] | 25.2% |
| O=C1OC(CCN2CCN(c3ccccc3N3CCOCC3)CC2)CC12CCCC2 (stereo not shown) [Entry 42] | 97.2% |
| CCC1(CC)CC(CCN2CCN(c3ccccc3OC)CC2)OC1=O (stereo not shown) [Entry 43] | 95.3% |

The next lines start with the values.

| inhibition at 10 µM | Structure (SMILES) |
| --- | --- |
| 95.9% | CCC1(CC)CC(CCN2CCN(c3ccc(O)cc3)CC2)OC1=O (stereo not shown) [Entry 1] |
| 93.3% | CCC1(CC)CC(CCN2CCN(c3ccc([N+](=O)[O-])cc3)CC2)OC1=O (stereo not shown) [Entry 2] |
| 88.4% | CCC1(CC)CC(CCN2CCN(c3ccc(C#N)cc3)CC2)OC1=O (stereo not shown) [Entry 3] |
| 96.6% | CCC1(CC)CC(CCN2CCN(c3ccc(C)cc3)CC2)OC1=O (stereo not shown) [Entry 4] |
| 53.1% | CCC1(CC)CC(CCN2CCN(CCc3ccccc3)CC2)OC1=O (stereo not shown) [Entry 5] |
| 99.9% | CCC1(CC)CC(CCN2CCN(c3ccccc3O)CC2)OC1=O (stereo not shown) [Entry 6] |
| 101% | CCC1(CC)CC(CCN2CCN(c3ccccn3)CC2)OC1=O (stereo not shown) [Entry 9] |
| 70.4% | CCC1(CC)CC(CCN2CCN(c3c(C)cccc3C)CC2)OC1=O (stereo not shown) [Entry 10] |
| 95.4% | CCC1(CC)CC(CCN2CCN(c3ccccc3)CC2)OC1=O (stereo not shown) [Entry 11] |
| 82.5% | CCC1(CC)CC(CCN2CCN(C3CCCCC3)CC2)OC1=O (stereo not shown) [Entry 13] |
| 54.3% | CCC1(CC)CC(CCN2CCN(c3ccccc3C(C)C)CC2)OC1=O (stereo not shown) [Entry 14] |
| 58.4% | CCC1(CC)CC(CCN2CCN(C(c3ccccc3)c3ccccc3)CC2)OC1=O (stereo not shown) [Entry 15] |
| 98% | O=C1OC(CCN2CCN(c3ccccc3)CC2)CC12CCCCC2 (stereo not shown) [Entry 22] |
| 93.7% | COc1cccc(N2CCN(CCC3CC4(CCCCC4)C(=O)O3)CC2)c1 (stereo not shown) [Entry 23] |
| 97% | O=C1OC(CCN2CCN(c3ccccc3Cl)CC2)CC12CCCCC2 (stereo not shown) [Entry 27] |
| 98% | O=C1OC(CCN2CCN(c3ccc(Cl)cc3)CC2)CC12CCCCC2 (stereo not shown) [Entry 28] |
| 96% | O=C1OC(CCN2CCN(c3ccc(C(F)(F)F)cc3)CC2)CC12CCCCC2 (stereo not shown) [Entry 29] |
| 54.1% | O=C1OC(CCN2CCN(c3ccc(O)cc3)CC2)CC12CCCCC2 (stereo not shown) [Entry 31] |
| 76.3% | O=C1OC(CCN2CCN(c3cccnc3)CC2)CC12CCCCC2 (stereo not shown) [Entry 32] |
| 91.1% | O=C1OC(CCN2CCN(c3ccc(C(F)(F)F)cn3)CC2)CC12CCCCC2 (stereo not shown) [Entry 35] |
| 69% | CCC1(CC)CC(CCN2CCC(C(O)(c3ccccc3)c3ccccc3)CC2)OC1=O (stereo not shown) [Entry 37] |
| 96.5% | CCC1(CC)CC(CCN2CCC(=C(c3ccccc3)c3ccccc3)CC2)OC1=O (stereo not shown) [Entry 38] |
| 81.7% | CC(C)(C)c1ccccc1N1CCN(CCC2CC3(CCCC3)C(=O)O2)CC1 (stereo not shown) [Entry 40] |
| 40.8% | Cc1ccc(N2CCN(CC3CC(c4ccccc4)(c4ccccc4)C(=O)O3)CC2)cc1 (stereo not shown) [Entry 44] |
| 97.4% | Cc1ccc(N2CCN(CCC3CC(c4ccccc4)(c4ccccc4)C(=O)O3)CC2)cc1 (stereo not shown) [Entry 45] |
| 96.8% | Cc1ccc(N2CCN(CCCC3CC(c4ccccc4)(c4ccccc4)C(=O)O3)CC2)cc1 (stereo not shown) [Entry 46] |
| 29.3% | CCC1(CC)CC(CCN2CCC(c3ccccc3)CC2)OC1=O (stereo not shown) [Entry 47] |
